In publication PMC10657973 (Journal of Pharmaceutical Analysis, 2023):
Where a name gives a salt, the structure may show the parent alone.

Legend:
OAT3 = biological target: T1, OAT3 (Homo sapiens, UniProt Q8TCC7); assay: Uptake of UTs in HEK293T-OAT3 cells; type: cell-based; conditions: 100 μM, 30 min, 37 °C; for uptake of free UT in OAT3-overexpressing cells vs control cells: without HSA; for uptake of HSA-bound UT in OAT3-overexpressing cells vs control cells: with HSA
T1 sequence (Q8TCC7 1-542): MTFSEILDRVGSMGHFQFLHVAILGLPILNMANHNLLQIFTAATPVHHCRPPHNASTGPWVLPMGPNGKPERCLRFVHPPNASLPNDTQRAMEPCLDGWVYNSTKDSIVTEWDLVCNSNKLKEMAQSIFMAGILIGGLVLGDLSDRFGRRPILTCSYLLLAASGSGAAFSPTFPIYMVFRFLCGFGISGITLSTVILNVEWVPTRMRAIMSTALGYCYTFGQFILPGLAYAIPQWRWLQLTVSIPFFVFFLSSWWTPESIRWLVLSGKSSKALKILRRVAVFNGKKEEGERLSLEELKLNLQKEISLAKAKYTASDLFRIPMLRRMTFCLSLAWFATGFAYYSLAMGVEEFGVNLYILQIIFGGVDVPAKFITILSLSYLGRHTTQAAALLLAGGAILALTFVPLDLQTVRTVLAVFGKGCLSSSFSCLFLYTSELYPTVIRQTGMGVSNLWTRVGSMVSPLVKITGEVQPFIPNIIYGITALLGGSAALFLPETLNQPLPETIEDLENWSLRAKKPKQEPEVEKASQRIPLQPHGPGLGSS

serum protein = assay: Protein-binding ratio of UTs in rat serum; type: in vitro ADME, rats; conditions: ultrafiltration at 37 °C
OAT1 = biological target: T2, OAT1 (Homo sapiens, UniProt Q4U2R8); assay: Uptake of UTs in HEK293T-OAT1 cells; type: cell-based; conditions: 100 μM, 30 min, 37 °C; for uptake of HSA-bound UT in OAT1-overexpressing cells vs control cells: with HSA; for uptake of free UT in OAT1-overexpressing cells vs control cells: without HSA
T2 sequence (Q4U2R8 1-563): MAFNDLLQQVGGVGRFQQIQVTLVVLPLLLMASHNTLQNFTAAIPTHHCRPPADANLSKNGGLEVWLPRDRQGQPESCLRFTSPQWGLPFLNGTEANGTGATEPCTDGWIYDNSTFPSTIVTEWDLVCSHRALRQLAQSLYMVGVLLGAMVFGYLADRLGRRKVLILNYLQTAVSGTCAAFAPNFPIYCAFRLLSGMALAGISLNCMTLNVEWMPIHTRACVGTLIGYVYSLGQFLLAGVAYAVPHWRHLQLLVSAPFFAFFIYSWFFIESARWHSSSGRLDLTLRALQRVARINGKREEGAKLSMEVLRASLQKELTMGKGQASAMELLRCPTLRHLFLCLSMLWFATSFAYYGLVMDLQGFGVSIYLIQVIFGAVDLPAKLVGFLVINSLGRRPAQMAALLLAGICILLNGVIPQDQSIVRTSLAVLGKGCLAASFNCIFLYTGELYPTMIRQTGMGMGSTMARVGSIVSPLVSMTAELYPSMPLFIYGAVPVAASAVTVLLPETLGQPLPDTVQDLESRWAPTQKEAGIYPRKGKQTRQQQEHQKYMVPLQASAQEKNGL

rOAT1/3 = assay: rOAT1/3−/− rat experiment; type: in vivo, rats; conditions: Fig. S7F
rMRP4 = type: in vivo, rats; conditions: rat, in vivo
[1] = Correlation between biomarkers and cefmetazole pharmacokinetics in rats; type: in vivo; conditions: PROB 60 and 120 mg/kg 7 days; cefmetazole 100 mg/kg i.v.
HSA = conditions: 4% HSA, about 100 μM UT, 37 °C, 2 h; cited from earlier work
MRP4 = assay: Intracellular accumulation of UTs in MRP4-overexpressing cells; type: cell-based, human; conditions: 100 μM, 30 min, 37 °C, 4 mM ATP
rOATs = rOATs inhibition experiment
[2] = type: in vivo, rats; conditions: rats; for renal excretion with MK-571 vs control: MK-571 20 mg/kg; for renal excretion with PROB vs control: PROB 60 mg/kg; for Renal clearance half-life (t1/2), Control: 2 mg/kg i.v., urine 0-12 h

## Cn1cnc2c(ncn2[C@@H]2O[C@H](CO)[C@@H](O)[C@H]2O)c1=O [1-methyl-inosine]
OAT3
  uptake of free UT in OAT3-overexpressing cells vs control cells: significantly higher

## N[C@@H](Cc1ccc(O)c(O)c1)C(=O)O [3-(3,4-dihydroxyphenyl)-L-alanine]
Serum protein
  Protein-binding ratio, Normal rats in vivo (%) (n = 6): < 70%

## O=S(=O)(O)Oc1c[nH]c2ccccc12 [3-indoxyl sulfate]
OAT3
  uptake of HSA-bound UT in OAT3-overexpressing cells vs control cells: no significant change
  uptake of free UT in OAT3-overexpressing cells vs control cells: substantially elevated

## OC[C@H]1O[C@@H](Oc2c[nH]c3ccccc23)[C@H](O)[C@@H](O)[C@@H]1O [3-indoxyl-β-D-glucopyranoside]
Serum protein
  Protein-binding ratio, Normal rats in vivo (%) (n = 6): > 90%
OAT3
  uptake of HSA-bound UT in OAT3-overexpressing cells vs control cells: markedly increased
  uptake of free UT in OAT3-overexpressing cells vs control cells: markedly increased

## CCc1ccc(OS(=O)(=O)[O-])cc1.[K+] [4-ethylphenyl sulfate]
Serum protein
  Protein-binding ratio, Normal rats in vivo (%) (n = 6): > 90%
OAT1
  uptake of HSA-bound UT in OAT1-overexpressing cells vs control cells: no significant change
  uptake of free UT in OAT1-overexpressing cells vs control cells: substantially elevated
OAT3
  uptake of HSA-bound UT in OAT3-overexpressing cells vs control cells: no significant change
  uptake of free UT in OAT3-overexpressing cells vs control cells: substantially elevated

## CN1CC(=O)NC1=N [Creatinine, creatinine]
Serum protein
  Protein-binding ratio, Normal rats in vivo (%) (n = 6): less than 24%
rOAT1/3
  renal elimination in rOAT1/3−/− rats: unaffected
rMRP4
  renal clearance rate in rMRP4−/− rats vs WT: not significantly altered
  renal uptake ratio in rMRP4−/− rats vs WT: not significantly altered
  serum levels in rMRP4−/− rats vs WT: not significantly altered
[1]
  plasma concentrations in rats treated with PROB: did not change significantly
HSA
  Protein-binding ratio, HSA binding in vitro (%) (n = 3): below 50%

## Nc1ccccc1C(=O)C[C@@H](N)C(=O)O [D-kynurenine]
Serum protein
  Protein-binding ratio, Normal rats in vivo (%) (n = 6): > 90%
OAT1
  uptake of HSA-bound UT in OAT1-overexpressing cells vs control cells: markedly increased
  uptake of free UT in OAT1-overexpressing cells vs control cells: markedly increased

## O=C(O)CNC(=O)c1ccccc1 [Hippuric acid, hippuric acid]
OAT3
  uptake of HSA-bound UT in OAT3-overexpressing cells vs control cells: dramatically increased
  uptake of free UT in OAT3-overexpressing cells vs control cells: dramatically increased
MRP4
  intracellular accumulation in MRP4-overexpressing cells vs control cells: slightly decreased
rOAT1/3
  renal elimination in rOAT1/3−/− rats: substantially inhibited
rOATs; PROB 30, 60, 120 mg/kg oral, 7 days
  serum levels in rats treated with PROB vs control: no significant change

## O=C(O)Cc1c[nH]c2ccccc12 [Indole-3-acetic acid, indole-3-acetic acid]
OAT1
  uptake of HSA-bound UT in OAT1-overexpressing cells vs control cells: significantly increased
  uptake of free UT in OAT1-overexpressing cells vs control cells: significantly increased

## CN(C)c1nc2c(ncn2[C@@H]2O[C@H](CO)[C@@H](O)[C@H]2O)c(=O)[nH]1 [N, N-dimethylguanosine, N,N-dimethylguanosine]
Serum protein
  Protein-binding ratio, Normal rats in vivo (%) (n = 6): less than 24%
HSA
  Protein-binding ratio, HSA binding in vitro (%) (n = 3): below 50%

## NCCCC[C@H](NCC(=O)O)C(=O)O [N-(1-carboxymethyl)-L-lysine]
Serum protein
  Protein-binding ratio, Normal rats in vivo (%) (n = 6): < 70%

## CC(=O)N[C@@H](CCCN=C(N)N)C(=O)O [N-acetyl-L-arginine]
MRP4
  intracellular accumulation in MRP4-overexpressing cells vs control cells: significantly decreased

## CC(=O)Nc1ccn([C@@H]2O[C@H](CO)[C@@H](O)[C@H]2O)c(=O)n1 [N-acetylcytidine]
OAT1
  uptake of free UT in OAT1-overexpressing cells vs control cells: significantly increased
OAT3
  uptake of free UT in OAT3-overexpressing cells vs control cells: significantly increased

## O=C(O)c1cc(=O)[nH]c(=O)[nH]1 [Orotic acid, orotic acid]
Serum protein
  Protein-binding ratio, Normal rats in vivo (%) (n = 6): less than 24%
HSA
  Protein-binding ratio, HSA binding in vitro (%) (n = 3): below 50%

## CCCN(CCC)S(=O)(=O)c1ccc(C(=O)O)cc1 [PROB, probenecid, reference compound]
rOATs; rats, H&E staining
  histological structure of kidney: unchanged

## O=C(O)[C@H]1O[C@@H](Oc2ccccc2)[C@H](O)[C@@H](O)[C@@H]1O [Phenyl-β-D-glucuronide, phenyl-β-D-glucuronide]
Serum protein
  Protein-binding ratio, Normal rats in vivo (%) (n = 6): < 70%
OAT3
  uptake of HSA-bound UT in OAT3-overexpressing cells vs control cells: significantly increased
  uptake of free UT in OAT3-overexpressing cells vs control cells: significantly increased

## O=c1[nH]cc([C@@H]2O[C@H](CO)[C@@H](O)[C@H]2O)c(=O)[nH]1 [Pseudouridine, pseudouridine]
Serum protein
  Protein-binding ratio, Normal rats in vivo (%) (n = 6): less than 24%
HSA
  Protein-binding ratio, HSA binding in vitro (%) (n = 3): below 50%

## [2H]c1c([2H])c([2H])c2c(O)c([2H])c(C(=O)O)nc2c1O [d4-xanthurenic acid]
[2]
  renal excretion with MK-571 vs control: reduce
  renal excretion with PROB vs control: reduce

## [2H]c1c([2H])c([2H])c2c(O)c([2H])c(C(=O)O)nc2c1[2H] [d5-kynurenic acid]
[2]
  Renal clearance half-life (t1/2), Control: 3.7 ± 0.7 h

## Cc1ccc(O[C@@H]2O[C@H](C(=O)O)[C@@H](O)[C@H](O)[C@H]2O)cc1 [p-cresol glucuronide]
Serum protein
  Protein-binding ratio, Normal rats in vivo (%) (n = 6): < 70%
OAT3
  uptake of HSA-bound UT in OAT3-overexpressing cells vs control cells: markedly increased
  uptake of free UT in OAT3-overexpressing cells vs control cells: markedly increased

## Cc1ccc(OS(=O)(=O)O)cc1 [p-cresol sulfate]
Serum protein
  Protein-binding ratio, Normal rats in vivo (%) (n = 6): > 90%
OAT1
  uptake of HSA-bound UT in OAT1-overexpressing cells vs control cells: significantly increased
  uptake of free UT in OAT1-overexpressing cells vs control cells: significantly increased
OAT3
  uptake of free UT in OAT3-overexpressing cells vs control cells: significantly increased

## O=C(O)c1cc(O)c2cccc(O)c2n1 [xanthurenic, xanthurenic acid]
OAT1
  uptake of free UT in OAT1-overexpressing cells vs control cells: mediated by OAT1 and OAT3
OAT3
  uptake of free UT in OAT3-overexpressing cells vs control cells: mediated by OAT1 and OAT3
MRP4
  intracellular accumulation in MRP4-overexpressing cells vs control cells: efflux by MRP4
rOATs; rats / in vivo
  serum level in vivo (detectability by LC-MS/MS): below the lowest detection limit

## d3-CMPF
[2]
  Renal clearance half-life (t1/2), Control: 1.9 ± 0.3 h
  renal excretion with MK-571 vs control: did not affect
  renal excretion with PROB vs control: did not affect
